The source of these data is US12466803B2 (priority 2021, dated 2025).

For orientation: IC50 means the point on the concentration scale where inhibition reaches its midpoint.

The first test relates to phospho (S293) BCKDHA in human skeletal myocytes. Briefly: Phospho BCKDHA Alpha Surefire Cell Assay. It counts as cell-based. The settings on record: 60 minutes with compound, geometric mean.
Turning to `C[C@@H]1CCc2c(ccc(-c3c(C(=O)O)sc4cc(F)ccc34)c2F)O1` (single isomer, unassigned) [Example 77, 6-fluoro-3-(5-fluoro-2-methyl-3,4-dihydro-2H-1-benzopyran-6-yl)-1-benzothiophene-2-carboxylic acid, ENANT-1], the IC50 was determined as 8.6 µM.

For the compound `C[C@@H]1CCc2cc(-c3c(C(=O)O)sc4ccccc34)ccc2O1` (single isomer, unassigned) [Example 45, 3-(2-methyl-3,4-dihydro-2H-1-benzopyran-6-yl)-1-benzothiophene-2-carboxylic acid, ENANT-1], the IC50 is above 60 µM.

On to `C[C@@H]1CCc2cc(-c3c(C(=O)O)sc4ccccc34)ccc2O1` (single isomer, unassigned) [Example 46, 3-(2-methyl-3,4-dihydro-2H-1-benzopyran-6-yl)-1-benzothiophene-2-carboxylic acid, ENANT-2], for which the IC50 is above 29 µM.

The same test, now with this note: Homo sapiens, 1 h, 60 minutes with compound, geometric mean.
Regarding `O=C(O)c1sc2c(F)c(F)ccc2c1-c1ccccc1` [Example 4, 6,7-Difluoro-3-phenyl-1-benzothiophene-2-carboxylic acid], the half-inhibitory concentration (IC50) is above 60 µM.

Regarding `COc1c(F)cc(Cl)c(-c2c(C(=O)O)sc3cc(F)ccc23)c1F` [Example 14, 3-(6-Chloro-2,4-difluoro-3-methoxyphenyl)-6-fluoro-1-benzothiophene-2-carboxylic acid], the 50% inhibitory concentration (IC50) turned out to be 0.023 µM.

Regarding `COc1cccc(-c2c(C(=O)O)sc3ccccc23)c1F` [Example 26, 3-(2-fluoro-3-methoxyphenyl)-1-benzothiophene-2-carboxylic acid], the IC50 is 5.5 µM.

As for `CCCOc1ccc(-c2c(C(=O)O)sc3cc(F)ccc23)c(F)c1F` [Example 39, 3-(2,3-difluoro-4-propoxyphenyl)-6-fluoro-1-benzothiophene-2-carboxylic acid], the IC50 is above 60 µM.

With `COc1c(F)c(F)cc(-c2c(C(=O)O)oc3cc(F)ccc23)c1F` [Example 17, 6-Fluoro-3-(2,4,5-trifluoro-3-methoxyphenyl)-1-benzofuran-2-carboxylic acid], the concentration for half-maximal inhibition (IC50) stood at 0.88 µM.

Consider `Cc1c(F)ccc(-c2c(C(=O)O)sc3cc(F)ccc23)c1F` [Example 117, 3-(2,4-difluoro-3-methylphenyl)-6-fluoro-1-benzothiophene-2-carboxylic acid], for which the 50% inhibitory concentration (IC50) came out at 0.12 µM.

Turning to `O=C(O)c1sc2cc(F)ccc2c1-c1c(F)cc(F)cc1F` [Example 60, 6-fluoro-3-(2,4,6-trifluorophenyl)-1-benzothiophene-2-carboxylic acid], the IC50 worked out at 2.9 µM.

As for `CC1CCc2c(ccc(-c3c(C(=O)O)sc4cc(F)ccc34)c2F)O1` (stereo not shown) [Example 76, 6-fluoro-3-(5-fluoro-2-methyl-3,4-dihydro-2H-1-benzopyran-6-yl)-1-benzothiophene-2-carboxylic acid], the IC50 worked out at 3.6 µM.

`CC1COc2cc(-c3c(C(=O)O)sc4cc(F)ccc34)ccc2C1` (stereo not shown) [Example 40, 6-fluoro-3-(3-methyl-3,4-dihydro-2H-1-benzopyran-7-yl)-1-benzothiophene-2-carboxylic acid]: the half-maximal inhibitory concentration (IC50) is above 54 µM.

Take `C[C@@H]1CCc2cc(-c3c(C(=O)O)sc4cc(Cl)ccc34)ccc2O1` (single isomer, unassigned) [Example 41, 6-chloro-3-(2-methyl-3,4-dihydro-2H-1-benzopyran-6-yl)-1-benzothiophene-2-carboxylic acid, ENANT-1]: the IC50 is above 40 µM.

`COc1ncc(F)c(-c2c(C(=O)O)sc3cc(F)ccc23)c1F` [Example 61, 3-(3,5-difluoro-2-methoxypyridin-4-yl)-6-fluoro-1-benzothiophene-2-carboxylic acid]: the 50% inhibitory concentration (IC50) stood at 2.1 µM.

Turning to `CCc1ncc(F)c(-c2c(C(=O)O)sc3cc(F)ccc23)c1F` [Example 110, 3-(2-ethyl-3,5-difluoropyridin-4-yl)-6-fluoro-1-benzothiophene-2-carboxylic acid], the IC50 stood at 0.55 µM.

Consider `O=C(O)c1sc2cc(F)ccc2c1-c1c(F)cncc1F` [Example 107, ammonium 3-(3,5-difluoropyridin-4-yl)-6-fluoro-1-benzothiophene-2-carboxylate], for which the IC50 is 8.6 µM.

For `CCc1c(F)ccc(-c2c(C(=O)O)sc3cc(F)ccc23)c1F` [Example 86, 3-(3-ethyl-2,4-difluorophenyl)-6-fluoro-1-benzothiophene-2-carboxylic acid], the concentration for half-maximal inhibition (IC50) amounted to 0.31 µM.

Turning to `O=C(O)c1sc2cc(F)ccc2c1-c1ccc(F)c(F)c1F` [Example 19, 6-Fluoro-3-(2,3,4-trifluorophenyl)-1-benzothiophene-2-carboxylic acid], the 50% inhibitory concentration (IC50) is 4.4 µM.

Take `COCc1c(F)c(F)cc(-c2c(C(=O)O)sc3cc(F)ccc23)c1F` [Example 53, 6-fluoro-3-[2,4,5-trifluoro-3-(methoxymethyl)phenyl]-1-benzothiophene-2-carboxylic acid]: the IC50 was found to be 4.2 µM.

As for `CCOc1ccc(F)c(-c2c(C(=O)O)sc3cc(F)ccc23)c1F` [Example 93, 3-(3-ethoxy-2,6-difluorophenyl)-6-fluoro-1-benzothiophene-2-carboxylic acid], the concentration for half-maximal inhibition (IC50) was 17 µM.

Consider `CC1CCc2cc(-c3c(C(=O)O)sc4cc(F)ccc34)cc(F)c2O1` (stereo not shown) [Example 71, 6-fluoro-3-(8-fluoro-2-methyl-3,4-dihydro-2H-1-benzopyran-6-yl)-1-benzothiophene-2-carboxylic acid], for which the half-inhibitory concentration (IC50) was 4.5 µM.

As for `O=C(O)c1sc2cc(Cl)ccc2c1-c1cc(Cl)c(F)cc1F` [Example 132, ammonium 6-chloro-3-(5-chloro-2,4-difluorophenyl)-1-benzothiophene-2-carboxylate], the 50% inhibitory concentration (IC50) was 0.47 µM.

Turning to `O=C(O)c1sc2cc(F)ccc2c1-c1c(F)cc(F)cc1Cl` [Example 148, 3-(2-chloro-4,6-difluorophenyl)-6-fluoro-1-benzothiophene-2-carboxylic acid], the IC50 worked out at 4 µM.

On to `COc1c(Cl)cc(F)c(-c2c(C(=O)O)sc3cc(F)ccc23)c1F` [Example 52, 3-(4-chloro-2,6-difluoro-3-methoxyphenyl)-6-fluoro-1-benzothiophene-2-carboxylic acid], for which the half-inhibitory concentration (IC50) was 0.064 µM.

`O=C(O)c1sc2cc(F)ccc2c1-c1c(F)ccc(Cl)c1F` [Example 97, 3-(3-chloro-2,6-difluorophenyl)-6-fluoro-1-benzothiophene-2-carboxylic acid]: the IC50 came out at 0.54 µM.

In the case of `Cc1cc(-c2c(C(=O)O)sc3cc(F)ccc23)c(F)cc1Cl` [Example 106, 3-(4-chloro-2-fluoro-5-methylphenyl)-6-fluoro-1-benzothiophene-2-carboxylic acid], the 50% inhibitory concentration (IC50) stood at 0.48 µM.

Take `C[C@@H]1CCc2cc(-c3c(C(=O)O)sc4cc(F)ccc34)cc(F)c2O1` (single isomer, unassigned) [Example 72, 6-fluoro-3-(8-fluoro-2-methyl-3,4-dihydro-2H-1-benzopyran-6-yl)-1-benzothiophene-2-carboxylic acid, ENANT-1]: the half-inhibitory concentration (IC50) stood at 4.5 µM.

For `O=C(O)c1sc2cc(F)ccc2c1-c1ccc(Cl)c(F)c1F` [Example 65, 3-(4-chloro-2,3-difluorophenyl)-6-fluoro-1-benzothiophene-2-carboxylic acid], the IC50 came to 1.8 µM.
